Read-outs that look alike come from different tables or passages of the source.
Tests used:
[1] = Bisphosphonate concentration at about 90% saturation in the vehicle; type: physicochemical
Method: Compositions in various vehicles (water/ethanol or buffer/ethanol, with or without additional ingredients, water (pure aqueous)) were prepared, using each bisphosphonate at a concentration of about 90% the saturation value. For example, “90/10” denotes a 90/10 (v/v) mixture of water/ethanol; “90/10 pH6” denotes a 90/10 (v/v) mixture of phosphate buffer pH6/ethanol.
Bisphosphonate concentrations are at about 90% saturation.
Risedronate sodium is generally administered using a dose of 35 mg of anhydrous monosodium risedronate, once a week. Advantageously, for a topical dose of 35 mg, this corresponds to 1.5 g of a solution according to one embodiment (risedronate at 90% saturation in phosphate-buffered hydroalcoholic solution 90/10 […], i.e. anhydrous monosodium risedronate at 22.4 mg/g). The same topical dose of 35 mg, corresponds to 0.8 g of another embodiment (risedronate at 90% saturation in pure water, i.e. anhydrous monosodium risedronate at 45.3 mg/g). […] The in vitro condition of application—i.e. 10 μl/1.77 cm^2—mimics an in vivo situation wherein the formulation is applied as a thin layer of 1-2 mg of formulation/cm^2.

ovariectomized rats [2] = conditions: OVX rats
Description: (§1) Ovariectomized rats are a recognised model for bone loss study, as the surgical operation causes an estrogen deficiency which results in rapid bone loss. See Guideline on the evaluation of medicinal products in the treatment of primary osteoporosis, CPMP/EWP/552/95 available for download from the European Medicine Agency at: http://www.emea.europa.eu/.
(§2) 13-week old rats (Sprague-Dawley, virgin female), 8 per group, were sham operated (group 1-control) or ovariectomized (OVX) (groups 2 to 7) on the day before the first day of treatment.
Femur and L2-L5 lumbar vertebrae block Bone Mineral Density (BMD) were calculated from in vivo Dual-energy X-ray Absorptiometry (DXA) measurement at the same time points with an Hologic apparatus. BMD was also measured ex vivo on dissected femur and L4 vertebrae at the end of the treatment period.

[3] = rat
[4] = rat, published data, Lin et al.; cited from earlier work
ovariectomized rats [5] = conditions: OVX rats; remark: listed apart in the source
Description: as §1, §2
Urinary deoxypyridinoline (D-pyr) and creatinine (Creat) were determined at baseline, week 4 and week 8. The ratio of D-Pyr to Creat is a recognised marker of bone resorption. See, e.g., Christenson RH “Biochemical markers of bone metabolism: an overview” Clin Biochem 1997, 30(8), 573-593.

[6] = In vitro dermal absorption, static diffusion cell (Franz cell)
[7] = phosphate-buffered hydroalcoholic solution 90/10
[8] = group 4: 4.46 mg/kg daily topical (reduced from 15.6 mg/kg/d after 2 weeks)
[9] = group 5: 15.6 mg/kg weekly topical
[10] = group 7: 10.85 mg/kg twice weekly topical (reduced from 15.6 mg/kg after 2 weeks)
[11] = buffered solution, compared to 100% phosphate buffer solution, FIG. 10 / FIG. 11

NCCCC(O)(P(=O)(O)O)P(=O)(O)O [Sodium Alendronate]
concentration at 90% saturation [1, 7]: 10.4 mg/g | concentration at 90% saturation ([1]; pure water): 28.09 mg/g

O=P([O-])(O)C(O)(Cc1cccnc1)P(=O)(O)O.[Na+] [Sodium Risedronate]
concentration at 90% saturation [1, 7]: 22.4 mg/g | concentration at 90% saturation ([1]; pure water): 45.3 mg/g

NCCCC(O)(P(=O)(O)O)P(=O)(O)O [alendronate, 4-amino-1-hydroxybutylidene-1,1-bisphosphonic acid]
BMD results compared with subcutaneous injection (group 3) or control (group 1) (ovariectomized rats [2]; topical groups 4-7, 8 weeks): similar | BMD in the distal metaphysis (part of femur) compared with the subcutaneous injection group (group 3) (ovariectomized rats [2]; topically treated groups 4 and 7): statistically higher | bone recovery after dermal administration ([3]; data from Example 4): 0.2% | delivered dose contained in gauze wrap removed at 24 h ([3]; dermal administration): about 10% | delivered dose contained in washing medium and swabs ([3]; dermal administration, 24 h): about 46% | dermally delivered alendronate not absorbed ([3]; gauze wrap + washing medium and swabs at 24 h): 56% | bone recovery after oral administration [4]: 0.9% | D-pyr/Creat, Week 4 (ovariectomized rats [5]; group 3: 2 μg/kg daily sc inj): 118 ± 64 | D-pyr/Creat, Week 8 (ovariectomized rats [5]; group 3: 2 μg/kg daily sc inj): 72 ± 13 | D-pyr/Creat, Week 4 (ovariectomized rats [5]; [8]): 58 ± 13 | D-pyr/Creat, Week 8 (ovariectomized rats [5]; [8]): 42 ± 15 | D-pyr/Creat, Week 4 (ovariectomized rats [5]; [9]): 138 ± 60 | D-pyr/Creat, Week 8 (ovariectomized rats [5]; [9]): 67 ± 26 | D-pyr/Creat, Week 4 (ovariectomized rats [5]; [10]): 88 ± 52 | D-pyr/Creat, Week 8 (ovariectomized rats [5]; [10]): 57 ± 24

O=P(O)(O)C(O)(Cc1cccnc1)P(=O)(O)O [risedronate, 1-hydroxy-2-(3-pyridyl)ethylidene-1,1-bisphosphonic acid]
effect of glycerine on the amount recovered in the receptor fluid and the dermis ([6]; FIG. 12 / FIG. 13): does not significantly increase | effect of propylene glycol (PG) on the amount recovered [6, 11]: does not significantly affect | effect of urea on the amount recovered in the receptor fluid and the skin/dermis [6, 11]: increases | effect of menthol on the amount recovered in the receptor fluid and dermis ([6]; menthol at 90% of saturating concentration in 90/10 phosphate buffer/ethanol, compared to pure phosphate buffer solution, FIG. 6 / FIG. 7): does not increase | amount recovered in the receptor fluid and the dermis with oleic acid, compared to the 100% phosphate buffer solution ([6]; oleic acid at 90% of maximum solubility in 90/10 phosphate buffer/ethanol with Tween 80 at 4.5%, FIG. 12 / FIG. 13): lower | effect of urea on the amount recovered in the receptor fluid and the skin ([6]; urea incorporated in phosphate buffer solution, FIG. 8 / FIG. 9): neutral effect | recovery in the receptor fluid and the dermis at 24 hrs (crossing of the skin) ([6]; water/alcohol compositions, FIG. 1 / FIG. 2): does cross the skin | effect of the increase in alcohol content on absorption, as percentage of the dose applied ([6]; water/alcohol ratios, FIG. 1 / FIG. 2): slightly increased
